Data taken from patent publication US12116357B2, “Heteroaryl-triazole and heteroaryl-tetrazole compounds as pesticides” (Bayer Aktiengesellschaft, priority 2018, dated 2024).

Legend:
Assay type in all cases: in vivo
[1] = tested on: Nezara viridula; test: Nezara viridula spray test; settings: 96 h
Outline: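 Barley plants infested with N. viridula larvae sprayed with compound in acetone/DMF diluted in water with 1000 ppm emulsifier at the desired concentration. Mortality (%) scored after 4 days; 100% means all bugs killed.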

[2] = tested on: Myzus persicae; test: Myzus persicae oral test; settings: 120 h
Outline: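 Mixed-population aphids feed through parafilm on compound solution (acetone concentrate diluted with water) combined with IPL41 insect medium (33%+15% sugar). Mortality (%) read after 5 days, 100% meaning all aphids killed.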

[3] = tested on: Ctenocephalides felis; test: Ctenocephalides felis oral test; settings: 48 h, 100 ppm in cattle blood, after 2 days
Outline: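 Adult unfed cat fleas (~20) fed through parafilm on cattle blood containing compound (DMSO concentrate diluted in blood); blood held at 37° C., fleas at room temperature. Mortality (%) scored after 2 days.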

[4] = tested on: Phaedon cochleariae; test: Phaedon cochleariae spray test; settings: 168 h, after 7 days
Outline: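 Chinese cabbage leaf disks sprayed with compound in acetone/DMF diluted in water with 1000 ppm alkylarylpolyglycol ether emulsifier, then infested with mustard beetle larvae once dry. Mortality (%) scored after 7 days; 100% = all larvae killed, 0% = none.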

[5] = tested on: Boophilus microplus; test: Boophilus microplus injection test; settings: Rhipicephalus microplus, 168 h, 20 μg/animal, egg deposition after 7 days, read-out: efficacy (infertile eggs)
Outline: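 Engorged adult female ticks, five per test, received a 1 μl abdominal injection of compound in DMSO, then were kept in a climate chamber. Fertile egg deposition checked after 7 days, with unclear eggs held until hatching at about 42 days. Efficacy 100% means all eggs infertile, 0% all fertile.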

[6] = tested on: Spodoptera frugiperda; test: Spodoptera frugiperda spray test; settings: 168 h
Outline: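 Maize leaf sections were sprayed with compound formulated in acetone/DMF and diluted in water containing 1000 ppm emulsifier, then infested with fall armyworm larvae once dry. Percent mortality was scored after 7 days.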

[7] = tested on: Musca domestica strain WHO-N; test: Musca domestica test (surface treatment & contact assay); settings: 24 hours after contact, read-out: efficacy (mortality); for mortality at 4 mg/m2: surface concentration 4 mg/m^2, 30 min exposure; for mortality at 20 mg/m2: surface concentration 20 mg/m^2, 30 min exposure
Outline: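 Test compound dissolved in acetone (2 mg/ml) with 2000 ppm RME, applied to glazed tile and acetone evaporated. Adult flies placed on dried surface for 30 min exposure. Mortality (%) scored 24 h after contact; 100% means all insects dead.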

[8] = tested on: Blattella germanica strain PAULINIA; test: Blattella germanica test (surface treatment & contact assay); settings: 24 hours after contact, read-out: efficacy (mortality); for mortality at 20 mg/m2: surface concentration 20 mg/m^2, 30 min exposure
Protocol: (§1) • Solvent: Aceton+2000 ppm rapeseed oil methyl ester (RME)
In order to produce a sufficient, active ingredient containing solution it is necessary to solve the test compound in the solvent-mix (acetone at 2 mg/ml/RME 2000 ppm). This solution is pipetted onto a glazed tile and after evaporation of the acetone, adult animals of the species Blattella germanica strain […] are placed onto the dried surface. The exposure time is 30 minutes.
(§2) Mortality in percent (%) is determined 24 hours after contact of the insects to the treated surface. 100% mortality means that all tested insects are dead, whereas 0% means that no insect died.

[9] = tested on: Aedes aegypti strain MONHEIM; test: Aedes aegypti test (surface treatment & contact assay); settings: 24 hours after contact, read-out: efficacy (mortality); for mortality at 20 mg/m2: surface concentration 20 mg/m^2, 30 min exposure; for mortality at 4 mg/m2: surface concentration 4 mg/m^2, 30 min exposure
Outline: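 Compound dissolved in acetone (2 mg/ml) with 2000 ppm rapeseed oil methyl ester, applied to glazed tile and acetone evaporated; adult mosquitoes exposed on the dried surface for 30 min. Percent mortality scored 24 h after contact.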

[10] = tested on: Nilaparvata lugens; test: Nilaparvata lugens spray test; settings: 96 h
Outline: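 Rice plants were sprayed with compound formulated in acetone/dimethylformamide and diluted in water containing alkylarylpolyglycol ether emulsifier, then infested with brown planthoppers. Percent mortality was scored after 4 days, where 100% means all insects killed.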

[11] = tested on: Myzus persicae; test: Myzus persicae spray test; settings: 120 h
Protocol: (§3) • Solvent: 78.0 parts by weight acetone • 1.5 parts by weight dimethylformamide • Emulsifier: alkylarylpolyglycol ether
(§4) To produce a suitable preparation of active compound, 1 part by weight of active compound is mixed with the stated amount of solvents and is diluted with water, containing an emulsifier concentration of 1000 ppm, to the desired concentration. Further test concentrations are prepared by dilution with emulsifier containing water.
Chinese cabbage (Brassica pekinensis) leaf disks infected with all instars of the green peach aphid (Myzus persicae), are sprayed with a preparation of the active ingredient of the desired concentration.
After 5 days mortality in % is determined. 100% means all aphids have been killed and 0% means none of the aphids have been killed.

[12] = tested on: Rhipicephalus sanguineus; test: Rhipicephalus sanguineus in-vitro contact test, adult brown dog ticks
Protocol: (§5) 9 mg compound is solved in 1 ml acetone and diluted with acetone to the desired concentration. 250 μl of the test solution is filled in 25 ml glass test tubes and homogeneously distributed on the inner walls by rotation and tilting on a shaking device (2 h at 30 rpm). With a compound concentration of 900 ppm, an inner surface of 44.7 cm^2 and a homogeneous distribution, a dose of 5 μg/cm^2 is achieved.
After the solvent has evaporated, each test tube is filled with 5-10 adult brown dog ticks (Rhipicephalus sanguineus), closed with a perforated lid and incubated in a lying position at room temperature and relative humidity. After 48 hours efficacy is determined. The ticks are patted on the ground of the tubes and are incubated on a heating plate at 45-50° C. for at most 5 minutes. Immotile or uncoordinated moving ticks, which are not able to escape the heat by climbing upwards, are marked as dead or moribund.
An efficacy of 100% means all ticks are dead or moribund; 0% means no ticks are dead or moribund.

[13] = tested on: Tetranychus urticae (OP-Resistant); test: Tetranychus urticae (OP-resistant) spray test; settings: 144 h, after 6 days
Protocol: as §3, §4
French bean (Phaseolus vulgaris) leaf disks infected with all instars of the two spotted spidermite (Tetranychus urticae), are sprayed with a preparation of the active ingredient of the desired concentration.
After 6 days mortality in % is determined. 100% means all spider mites have been killed and 0% means none of the spider mites have been killed.

[14] = tested on: Ctenocephalides felis; test: Ctenocephalides felis in-vitro contact test, adult cat flea; settings: 5 μg/cm^2, after 48 hours, read-out: efficacy (fleas dead or moribund)
Protocol: as §5
After the solvent has evaporated, each test tube is filled with 5-10 adult cat fleas (Ctenocephalides felis), closed with a perforated lid and incubated in a lying position at room temperature and relative humidity. After 48 hours efficacy is determined. The fleas are patted on the ground of the tubes and are incubated on a heating plate at 45-50° C. for at most 5 minutes. Immotile or uncoordinated moving fleas, which are not able to escape the heat by climbing upwards, are marked as dead or moribund.
An efficacy of 100% means all fleas are dead or moribund; 0% means no fleas are dead or moribund.

[15] = tested on: Culex quinquefasciatus strain P00; test: Culex quinquefasciatus test (surface treatment & contact assay); settings: 24 hours after contact, read-out: efficacy (mortality); for mortality at 4 mg/m2: surface concentration 4 mg/m^2, 30 min exposure; for mortality at 20 mg/m2: surface concentration 20 mg/m^2, 30 min exposure
Protocol: as §1
In order to produce a sufficient, active ingredient containing solution it is necessary to solve the test compound in the solvent-mix (acetone at 2 mg/ml/RME 2000 ppm). This solution is pipetted onto a glazed tile and after evaporation of the acetone, adult mosquitoes of the species Culex quinquefasciatus strain P00 are placed onto the dried surface. The exposure time is 30 minutes.
as §2

[16] = tested on: Anopheles funestus strain FUMOZ-R; test: Anopheles funestus test (surface treatment & contact assay); settings: 24 hours after contact, read-out: efficacy (mortality); for mortality at 4 mg/m2: surface concentration 4 mg/m^2, 30 min exposure; for mortality at 20 mg/m2: surface concentration 20 mg/m^2, 30 min exposure
Protocol: as §1
In order to produce a sufficient, active ingredient containing solution it is necessary to solve the test compound in the solvent-mix (acetone at 2 mg/ml/RME 2000 ppm). This solution is pipetted onto a glazed tile and after evaporation of the acetone, adult mosquitoes of the species Anopheles funestus strain FUMOZ-R (Hunt et al., Med. Vet. Entomol. 2005 September; 19(3): 271-275) are placed onto the dried surface. The exposure time is 30 minutes.
as §2

SMILES | mortality at 500 g/ha [1] [%] | mortality at 4 ppm [2] [%] | mortality at 20 ppm [2] [%] | mortality at 100 ppm [3] [%] | mortality at 500 g/ha [4] [%] | pest or weed control at 0.02 mg [5] [%] | mortality at 500 g/ha [6] [%] | mortality at 4 mg/m2 [7] [%] | mortality at 20 mg/m2 [7] [%] | mortality at 20 mg/m2 [9] [%] | mortality at 500 g/ha [10] [%] | efficacy (ticks dead or moribund) ([12]; 1 μg/cm^2, after 48 hours) [%] | mortality at 500 g/ha [13] [%] | pest or weed control at 5 µg/cm2 [14] [%] | mortality at 20 mg/m2 [16] [%] | other results
CC(c1ncnn1-c1ncccn1)N(CC1CS(=O)(=O)C1)C(=O)c1cc(Cl)cc(C(F)(F)F)c1 (stereo not shown) [Example I-004] | 100 | 100 | 100 | 100 | 100 | 100 | 100 | 90 to 100 | 90 to 100 | 90 to 100 | 100 |  |  |  |  | mortality at 4 mg/m2 ([8]; surface concentration 4 mg/m^2, 30 min exposure): 80 to 100%; mortality at 20 mg/m2 [8]: 80 to 100%; mortality at 500 g/ha [11]: 100%
CCOCN(C(=O)c1cc(Cl)cc(C(F)(F)F)c1)C(C)c1ncnn1-c1ncccn1 (stereo not shown) [Example I-013, 3-Chloro-N-(ethoxymethyl)-N-{1-[1-(pyrimidin-2-yl)-1H-1,2,4-triazol-5-yl]ethyl}-5-(trifluoromethyl)benzamide] |  | 100 | 100 | 100 | 100 | 100 | 100 |  |  |  | 100 | 100 | 80 | 100 |  | efficacy (ticks dead or moribund) ([12]; 5 μg/cm^2, after 48 hours): 100%
CSCCN(C(=O)c1cc(Cl)cc(C(F)(F)F)c1)C(C)c1ncnn1-c1ncccn1 (stereo not shown) [Example I-017] | 100 | 100 | 100 | 100 | 100 | 100 | 100 | 90 to 100 | 90 to 100 | 90 to 100 | 100 | 80 |  | 100 | 85 to 100 | efficacy (ticks dead or moribund) ([12]; 5 μg/cm^2, after 48 hours): 100%; mortality at 4 mg/m2 [9]: 80 to 100%; mortality at 4 mg/m2 [15]: 85 to 100%; mortality at 20 mg/m2 [15]: 90 to 100%; mortality at 4 mg/m2 [16]: 85 to 100%
CC(c1ncnn1-c1ncccn1)N(C(=O)c1cc(Cl)cc(C(F)(F)F)c1)C1COC1 (stereo not shown) [Example I-021] | 100 | 100 | 100 | 100 | 100 | 100 | 83 |  | 90 to 100 | 90 to 100 |  |  |  | 100 |  | mortality at 20 mg/m2 [8]: 80 to 100%; mortality at 4 mg/m2 [9]: 80 to 100%
CON(C(=O)c1cc(Cl)cc(C(F)(F)F)c1)C(C)c1ncnn1-c1ncccn1 (stereo not shown) [Example I-026] | 100 | 100 | 100 | 100 | 100 | 100 | 100 |  |  |  |  |  | 90 |  |  | 
CCON(C(=O)c1cc(Cl)cc(C(F)(F)F)c1)C(C)c1ncnn1-c1ncccn1 (stereo not shown) [Example I-027] | 100 | 100 | 100 | 100 | 100 | 100 |  |  |  |  |  | 100 | 80 | 100 | 85 to 100 | mortality at 4 mg/m2 [16]: 85 to 100%
CSCCN(C(=O)c1cc(Cl)cc(S(C)(=O)=O)c1)C(C)c1ncnn1-c1ccc(C#N)cn1 (stereo not shown) [Example I-035] | 100 | 100 |  |  |  |  | 100 | 90 to 100 | 90 to 100 | 90 to 100 | 90 |  | 90 | 100 | 85 to 100 | mortality at 4 mg/m2 [15]: 85 to 100%; mortality at 20 mg/m2 [15]: 90 to 100%; mortality at 500 g/ha [11]: 90%
